Experimental data taken from US12371453B2, “Polypeptide having antibacterial activity, composition for preventing or treating sepsis comprising same, and antibacterial composition” (priority 2019, dated 2025).
pKd: −log10 of the molar value. Values after ≈ are worked out from the molar mass of the structure shown. Square brackets hold non-standard residues; d marks the D form. Peptide text beside a SMILES is read from it.

What was measured:
[1] = Calcein dye leakage from liposome mimicking gram-negative bacterial cell membrane; format: biochemical; settings: calcein-encapsulated liposome
Method: To study an action mechanism for FP12-NH2, FP13-NH2, allD FP12-NH2, and allD FP13-NH2 peptides, the disruption ability of the peptides against liposomes mimicking a bacterial cell membrane and a red blood cell membrane was measured.
EYPG is an abbreviation for egg yolk L-α-phosphatidyl-DL-glycerol, and EYPC is an abbreviation for egg yolk 1,2-diacyl-sn-glycero-3-phosphocholine. CH is an abbreviation for cholesterol. After dissolving the phospholipids composed according to the content of each component in chloroform, the chloroform was removed using a rotary evaporator, and lyophilization was performed overnight. Afterward, the dried lipid film was dissolved in a Tris-buffer solution, and calcein […]. After repeated freezing and thawing, the calcein-encapsulated liposome was manufactured using an extruder. Subsequently, after an excitation wavelength of a spectrofluorimeter (Shimadzu RF 5301 PC spectrofluorimeter, Japan) was set to 490 nm, and an emission wavelength was set to 520 nm, the peptide was administered to the liposome to measure relative dye leakage, provided that a 100% dye leakage was expressed as fluorescence intensity when 0.010% Triton-X100 was added.
The upper graphs of FIG. 3 show the % dye leakage for an EYPC/EYPG (7:3, w/w) liposome mimicking bacterial cells, encapsulating a fluorescent dye, calcein, by a peptide according to a peptide concentration. […] The lower graphs of FIG. 3 show the % dye leakage for an EYPC/CH (10:1, w/w) liposome, which is […] mimicking a human red blood, encapsulating a fluorescent dye, calcein, by a peptide according to a peptide concentration.

A. baumannii = format: cell-based
[2] = LPS binding affinity by Isothermal Titration Calorimeter (ITC); design: species or system E. coli K1
From the text: FPT (ADK 44-54) is denoted by wild type (WT), and peptides in which a point mutation occurred at various sites in WT were manufactured (FP3, FP5, FP6, and FP9). To increase the interaction with LPS in a residue sequence of FP3, peptides were designed based on FP3- and LPS-binding models (FP12-NH2 and FP13-NH2), and peptides were designed by additionally introducing a non-natural amino acid and an amino acid isomer (allomeric D-type amino acid) (allD FP12-NH2, allD FP13-NH2, allD FP-13-9a, allD FP-13-9w, allD FP-13-9k, and allD FP13-NH2 (AcOH)). In addition, an N-terminus PEGylated peptide (PEG-alld FP13-NH2 (AcOH)) was additionally designed, synthesized, and provided by ANYGEN, Co. Ltd. The binding affinity between each of the provided peptides and lipopolysaccharide (LPS) was confirmed through measuring the binding affinity (Kd) using Isothermal Titration Calorimeter (ITC).
Specifically, a method of analyzing binding affinity (Kd) between a peptide and LPS is as follows.
Measurement was carried out using a Malvern MicroCal PEAQ-ITC cell instrument, and the following pretreatment was carried out to confirm interaction with LPS. The amount and morphology of a sample cell are 300 μL and coin-shaped, fixed-in-place, respectively; a syringe rotation rate was 1,200 rpm; and a temperature was 30° C., 35° C. or 25° C.
Before the experiment, LPS and the peptide were previously diluted with PBS, thereby preparing 2 mM LPS and 0.2 mM peptide. 300 μL of the peptide was added into cells in the ITC instrument, which had been washed, and 40 μL of LPS was put into a syringe. After measurement conditions for ITC (temperature, number of injections) were set, the syringe was inserted into the cell, and ITC measurement was started. When the measurement was completed, analysis is performed, and the Kd values of LPS and the peptide were calculated.

[3] = test system: Salmonela typhimurium (ATCC 53648); assay: microbe, parasite or virus in culture; settings: Salmonella typhimurium ATCC 53648
Method: (§1) To compare the antibacterial activity between the four commercially available antibiotics (ampicillin, gentamicin, levofloxacin and imipenem) and the allD FP13-NH2 (AcOH) peptide, an antibacterial activity test was performed to measure the minimum inhibitory concentrations (MIC50 and MIC80) for gram-negative and gram-positive standard strains (Escherichia coli DH5α, Escherichia coli K1, Acinetobacter baumannii, Pseudomonas aeruginosa, Salmonella enteritidis, Salmonella typhimurium, and Klebsiella pneumoniae).
(§2) More specifically, 100 μL of a medium was dispensed into each well of a 96-well plate, and in the first column, an antibiotic and a peptide in 200 μL of the medium were dispensed. 1/2 serial dilution was performed from columns 1 to 11, and gram-negative and gram-positive bacteria which had been previously cultured were diluted (OD600 nm value in dilution: approximately 0.0025) and dispensed into each well. The plate was incubated in a 37° C. incubator for 4 hours, and measured at OD600 nm.

[4] = test system: Pseudomanas aeruginosa PAO1 (ATCC 47085D-5); assay: microbe, parasite or virus in culture; settings: PAO1
Method: as §1, §2

[5] = test system: Klebiella pneumoniae (ATCC 13883); assay: microbe, parasite or virus in culture; settings: ATCC 13883
Method: as §1, §2

[6] = test system: Salmonela enteritidis (ATCC 13076); assay: microbe, parasite or virus in culture; settings: ATCC 13076
Method: as §1, §2

Escherichia coli K1 = assay: microbe, parasite or virus in culture; settings: K1
Method: as §1, §2

[7] = test system: Acinetobacter baumannii (ATCC 19606); assay: microbe, parasite or virus in culture; settings: ATCC 19606
Method: as §1, §2

[8] = test system: Escherichia coli DH5α (ATCC PTA-4750); assay: microbe, parasite or virus in culture; settings: Escherichia coli DH5α, 4 hours
Method: as §1, §2

[9] = test system: Carbapenem resistant (CR)-Acinetobactor baumannii; assay: organism not typed

SMILES: CC(C)C[C@@H](NC(=O)[C@H](N)CCCCN)C(=O)N[C@H](CCCNC(=N)N)C(=O)N[C@@H](C(=O)N[C@H](CCCCN)C(=O)N[C@H](CC(C)C)C(=O)N[C@H](CCCNC(=N)N)C(=O)N[C@H](CCCNC(=N)N)C(=O)N[C@H](Cc1ccc(O)cc1)C(=O)N[C@H](CC(C)C)C(=O)N[C@H](CCCNC(=N)N)C(N)=O)C(C)C [allD FP13-NH2] (H-[dK][dL][dR][dV][dK][dL][dR][dR][dY][dL][dR]-NH2; N-terminus assumed)
- dye leakage, PC/PG (7:3, w/w) liposome mimicking a bacteria cell membrane [1]: high dye leakage
- MIC50 (A. baumannii): 4 µM (≈ 6 µg/mL)
- MIC90 (A. baumannii): 8 µM (≈ 12 µg/mL)
- LPS binding affinity (in words) ([2]; compared with FP1 (wild type, WT)): strong LPS binding affinity
- pKd ([2]; peptide binding to LPS, read-out: Kd (calculated by ITC)): 5.32
- MIC (μg/ml) 50% ([3]; 50% growth inhibition): <2.0 µg/mL
- MIC (μg/ml) 80% ([3]; 80% growth inhibition): <4.0 µg/mL
- MIC (μg/ml) 50% [4]: <0.5 µg/mL
- MIC (μg/ml) 80% [4]: <1.0 µg/mL
- MIC (μg/ml) 50% [5]: <0.5 µg/mL
- MIC (μg/ml) 80% [5]: <1.0 µg/mL
- MIC (μg/ml) 50% [6]: <1.0 µg/mL
- MIC (μg/ml) 80% [6]: <2.0 µg/mL
- MIC (μg/ml) 50% (Escherichia coli K1): <2.0 µg/mL
- MIC (μg/ml) 80% (Escherichia coli K1): <4.0 µg/mL
- MIC (μg/ml) 50% [7]: <4.0 µg/mL
- MIC (μg/ml) 80% [7]: <8.0 µg/mL
- MIC (μg/ml) 50% ([8]; 50% growth inhibition): <1.0 µg/mL
- MIC (μg/ml) 80% ([8]; 80% growth inhibition): <2.0 µg/mL
- MIC50, Carbapenem resistant (CR)-Acinetobactor baumannii [9]: <4 µg/mL
- MIC50 (S. aureus): 4 µM (≈ 6 µg/mL)
- MIC90 (S. aureus): 8 µM (≈ 12 µg/mL)
